For orientation: pIC50 means the negative decadic logarithm of the IC50, by convention in mol/L.

pIC50: −log10 of the molar value.

The target in this assay is T1, KCNT1 (KNa1.1, Slack) (Homo sapiens, UniProt Q5JUK3).
T1 construct: expressed in transfected cells; host or cells: HEK-TREX (tetracycline-inducible HEK cell line)
T1 sequence (Q5JUK3 1-1230): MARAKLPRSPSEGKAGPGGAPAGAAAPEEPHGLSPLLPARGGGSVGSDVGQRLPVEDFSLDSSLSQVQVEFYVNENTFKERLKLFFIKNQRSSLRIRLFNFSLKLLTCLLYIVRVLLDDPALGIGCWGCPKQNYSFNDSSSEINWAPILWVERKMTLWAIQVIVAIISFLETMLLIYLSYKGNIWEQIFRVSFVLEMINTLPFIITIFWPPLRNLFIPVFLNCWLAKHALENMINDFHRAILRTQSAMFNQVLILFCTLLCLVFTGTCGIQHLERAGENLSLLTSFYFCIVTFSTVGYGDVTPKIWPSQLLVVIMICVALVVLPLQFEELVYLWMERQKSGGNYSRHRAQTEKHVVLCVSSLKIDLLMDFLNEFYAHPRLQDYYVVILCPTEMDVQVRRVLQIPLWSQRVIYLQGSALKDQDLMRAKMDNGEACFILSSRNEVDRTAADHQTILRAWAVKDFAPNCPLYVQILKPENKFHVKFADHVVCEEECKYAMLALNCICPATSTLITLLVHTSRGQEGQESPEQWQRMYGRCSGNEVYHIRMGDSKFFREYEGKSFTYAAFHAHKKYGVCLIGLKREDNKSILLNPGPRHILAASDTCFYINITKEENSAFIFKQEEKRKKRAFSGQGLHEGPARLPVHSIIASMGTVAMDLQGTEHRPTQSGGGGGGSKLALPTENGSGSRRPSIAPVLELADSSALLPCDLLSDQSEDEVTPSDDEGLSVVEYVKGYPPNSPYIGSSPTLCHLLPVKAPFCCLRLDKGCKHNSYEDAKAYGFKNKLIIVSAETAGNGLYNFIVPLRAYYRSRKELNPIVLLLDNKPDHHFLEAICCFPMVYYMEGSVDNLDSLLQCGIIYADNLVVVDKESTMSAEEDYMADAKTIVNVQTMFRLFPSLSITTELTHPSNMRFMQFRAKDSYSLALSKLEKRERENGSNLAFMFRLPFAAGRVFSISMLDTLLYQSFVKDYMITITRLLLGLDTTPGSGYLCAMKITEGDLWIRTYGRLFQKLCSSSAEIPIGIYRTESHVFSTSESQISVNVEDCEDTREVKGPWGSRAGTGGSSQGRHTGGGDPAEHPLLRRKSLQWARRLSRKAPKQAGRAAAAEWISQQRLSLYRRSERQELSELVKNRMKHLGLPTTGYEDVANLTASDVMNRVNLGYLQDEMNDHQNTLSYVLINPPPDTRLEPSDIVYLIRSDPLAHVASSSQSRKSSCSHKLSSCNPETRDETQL
Briefly: KCNT1 patch clamp assay (SyncroPatch 384PE automated patch clamp). In kind it is cell-based. The note with it: tetracycline inducible HEK-TREX cell line; perforated patch; step from −80 mV to 0 mV; room temperature; read-out: KCNT1-WT IC50. As for the experimental part: KCNT1—Patch Clamp Assay Inhibition of KCNT1 (KNa1.1, Slack) was evaluated using a tetracycline inducible cell line (HEK-TREX). Currents were recorded using the SyncroPatch 384PE automated, patch clamp system. Pulse generation and data collection were performed with PatchController384 V1.3.0 and DataController384 V1.2.1 (Nanion Technologies). The access resistance and apparent membrane capacitance were estimated using built-in protocols. Current were recorded in perforated patch mode (10 μM escin) from a population of cells. […] The cells were allowed to recover in the cell hotel prior to experimentation. Currents were recorded at room temperature. […] The extracellular solution was used as the wash, reference and compound delivery solution. […] Escin is made at a 5 mM stock in water, aliquoted, and stored at −20° C. The compound plate was created at 2× concentrated in the extracellular solution. The compound was diluted to 1:2 when added to the recording well. The amount of DMSO in the extracellular solution was held constant at the level used for the highest tested concentration. A holding potential of −80 mV with a 100 ms step to 0 mV was used. […] The average mean current from 3 sweeps was calculated and the % inhibition of each compound was calculated. The % Inhibition as a function of the compound concentration was fit with a Hill equation to derive IC50, slope, min and max parameters.
For orientation: Patch clamp records ionic current or voltage across a cell membrane.

Turning to `CC(=O)NC[C@@H](NC(=O)c1cc(C(F)(F)F)nn1C)c1nc(-c2cccc(F)c2)no1` [Compound 137], the pIC50 is 4.70 to 6.00.
For `CO[C@@H](C)[C@@H](NC(=O)c1cc(C(F)(F)F)nn1C)c1nc(-c2cccc(F)c2)no1` [Compound 138], the pIC50 is at least 6.00.
Regarding `CO[C@H](C)[C@@H](NC(=O)c1cc(C(F)(F)F)nn1C)c1nc(-c2cccc(F)c2)no1` [Compound 139], the pIC50 was at least 6.00.
In the case of `Cn1nc(C(F)(F)F)cc1C(=O)NC(CC#N)c1nc(-c2cccc(F)c2)no1` (centres unmarked) [Compound 140] it was 4.70 to 6.00; in that of `Cn1nc(C(F)(F)F)cc1C(=O)NC(CC#N)c1nc(-c2cccc(F)c2)no1` (centres unmarked) [Compound 141], 4.70 to 6.00; in that of `CO[C@@H](C)[C@H](NC(=O)c1cc(C(F)(F)F)nn1C)c1nc(-c2cccc(F)c2)no1` [Compound 142], 4.70 to 6.00.
For `Cn1nc(C(F)(F)F)cc1C(=O)NC(c1nc(-c2cccc(F)c2)no1)C1COC1` (centres unmarked) [Compound 147], the pIC50 was 4.70 to 6.00.
In the case of `Cn1nc(C(F)(F)F)cc1C(=O)NC1(c2nc(-c3cccc(F)c3)no2)CCOC1` (centres unmarked) [Compound 148], the pIC50 is 4.70 to 6.00.
For `Cn1nc(C(F)(F)F)cc1C(=O)NC1(c2nc(-c3cccc(F)c3)no2)CCOC1` (centres unmarked) [Compound 149] the value was at least 6.00; for `Cc1nn(C(C)(C)C)cc1C(=O)N[C@@H](C)c1nc(-c2cccc(F)c2)no1` [Compound 150], at least 6.00.
For `C[C@H](NC(=O)c1cn(CC(F)(F)F)nc1C1CC1)c1nc(-c2cccc(F)c2)no1` [Compound 151] the value was 4.70 to 6.00.
`Cc1nn(C2CCOCC2)cc1C(=O)N[C@@H](C)c1nc(-c2cccc(F)c2)no1` [Compound 152]: the pIC50 was 4.70 to 6.00.
Take `Cc1nn(C(C)C)cc1C(=O)N[C@@H](C)c1nc(-c2cccc(F)c2)no1` [Compound 153]: the pIC50 is at least 6.00.
As for `Cc1nn(-c2ccc(F)cc2)cc1C(=O)N[C@@H](C)c1nc(-c2cccc(F)c2)no1` [Compound 154], the pIC50 is at least 6.00.
For `C[C@H](NC(=O)c1cn(C)nc1C1CCC1)c1nc(-c2cccc(F)c2)no1` [Compound 155] the value was 4.70 to 6.00.
For `COCc1nn(C)cc1C(=O)N[C@@H](C)c1nc(-c2cccc(F)c2)no1` [Compound 156] the value was at most 4.70; for `Cn1nc(C(F)(F)F)cc1C(=O)NC(CNC(=O)OCc1ccccc1)c1nc(-c2cccc(F)c2)no1` (centres unmarked) [Compound 157, benzyl N-[2-[3-(3-fluorophenyl)-1,2,4-oxadiazol-5-yl]-2-[[2-methyl-5-(trifluoromethyl)pyrazole-3-carbonyl]amino]ethyl]carbamate], 4.70 to 6.00.
On to `C[C@H](NC(=O)c1cn(C)nc1C(F)(F)F)c1nc(-c2cccc(F)c2)no1` [Compound 160], for which the negative-log IC50 (pIC50) is 4.70 to 6.00.
As for `Cc1nn(C2CC2)cc1C(=O)N[C@@H](C)c1nc(-c2cccc(F)c2)no1` [Compound 161], the pIC50 is 4.70 to 6.00.
For `C[C@H](NC(=O)c1cn(C)nc1C(C)(C)C)c1nc(-c2cccc(F)c2)no1` [Compound 162] the value was 4.70 to 6.00; for `Cc1nn(CC(F)F)cc1C(=O)N[C@@H](C)c1nc(-c2cccc(F)c2)no1` [Compound 163], 4.70 to 6.00.
Turning to `Cc1nn(CC(F)(F)F)cc1C(=O)N[C@@H](C)c1nc(-c2cccc(F)c2)no1` [Compound 164], the pIC50 is 4.70 to 6.00.
In the case of `CCn1cc(C(=O)N[C@@H](C)c2nc(-c3cccc(F)c3)no2)c(C(F)(F)F)n1` [Compound 165] it was at least 6.00.
Consider `C[C@H](NC(=O)c1cn(C)nc1C1CCOCC1)c1nc(-c2cccc(F)c2)no1` [Compound 166], for which the pIC50 was 4.70 to 6.00.
In the case of `Cn1nc(C(F)(F)F)cc1C(=O)NC(CN)c1nc(-c2cccc(F)c2)no1` (centres unmarked) [Compound 167, N-[2-amino-1-[3-(3-fluorophenyl)-1,2,4-oxadiazol-5-yl]ethyl]-2-methyl-5-(trifluoromethyl)pyrazole-3-carboxamide] it was 4.70 to 6.00; in that of `COC(=O)NCC(NC(=O)c1cc(C(F)(F)F)nn1C)c1nc(-c2cccc(F)c2)no1` (centres unmarked) [Compound 168], 4.70 to 6.00; in that of `Cn1nc(C(F)(F)F)cc1C(=O)NC(CNS(C)(=O)=O)c1nc(-c2cccc(F)c2)no1` (centres unmarked) [Compound 169], 4.70 to 6.00.
In the case of `COCCC(NC(=O)c1cc(C(F)(F)F)nn1C)c1nc(-c2cccc(F)c2)no1` (centres unmarked) [Compound 170] it was at least 6.00.
In the case of `Cn1nc(C(F)(F)F)cc1C(=O)NC(CS(C)(=O)=O)c1nc(-c2cccc(F)c2)no1` (centres unmarked) [Compound 171], the pIC50 was 4.70 to 6.00.
Regarding `CC(NC(=O)c1cc(C(F)(F)F)nn1C)c1nc(-c2cccc(CO)c2)no1` (centres unmarked) [Compound 176, N-(1-(3-(3-(hydroxymethyl)phenyl)-1,2,4-oxadiazol-5-yl)ethyl)-1-methyl-3-(trifluoromethyl)-1H-pyrazole-5-carboxamide], the pIC50 is 4.70 to 6.00.
Consider `CC(c1nc(-c2cccc(CO)c2)no1)N(C)C(=O)c1cc(C(F)(F)F)nn1C` (centres unmarked) [Compound 177, N-(1-(3-(3-(hydroxymethyl)phenyl)-1,2,4-oxadiazol-5-yl)ethyl)-N,1-dimethyl-3-(trifluoromethyl)-1H-pyrazole-5-carboxamide], for which the pIC50 was at most 4.70.
For `CC(NC(=O)c1cc(C(F)(F)F)nn1C)c1nc(-c2cccc(CC#N)c2)no1` (centres unmarked) [Compound 178, N-(1-(3-(3-(cyanomethyl)phenyl)-1,2,4-oxadiazol-5-yl)ethyl)-1-methyl-3-(trifluoromethyl)-1H-pyrazole-5-carboxamide] the value was 4.70 to 6.00; for `CC(NC(=O)c1cc(C(F)(F)F)nn1C)c1nc(-c2cccc(S(C)(=O)=O)c2)no1` (centres unmarked) [Compound 179, 1-methyl-N-(1-(3-(3-(methylsulfonyl)phenyl)-1,2,4-oxadiazol-5-yl)ethyl)-3-(trifluoromethyl)-1H-pyrazole-5-carboxamide], 4.70 to 6.00; for `CC(NC(=O)c1cc(C(F)(F)F)nn1C)c1nc(-c2cccc(S(N)(=O)=O)c2)no1` (centres unmarked) [Compound 180, 1-methyl-N-(1-(3-(3-sulfamoylphenyl)-1,2,4-oxadiazol-5-yl)ethyl)-3-(trifluoromethyl)-1H-pyrazole-5-carboxamide], at most 4.70.
On to `COC(=O)c1cccc(-c2noc(C(C)NC(=O)c3cc(C(F)(F)F)nn3C)n2)c1` (centres unmarked) [Compound 181, methyl 3-(5-(1-(1-methyl-3-(trifluoromethyl)-1H-pyrazole-5-carboxamido)ethyl)-1,2,4-oxadiazol-3-yl)benzoate], for which the pIC50 is at least 6.00.
In the case of `CC(NC(=O)c1cc(C(F)(F)F)nn1C)c1nc(-c2cccc(C(=O)O)c2)no1` (centres unmarked) [Compound 182, 3-(5-(1-(1-methyl-3-(trifluoromethyl)-1H-pyrazole-5-carboxamido)ethyl)-1,2,4-oxadiazol-3-yl)benzoic Acid] it was at most 4.70.
In the case of `CC(NC(=O)c1cc(C(F)(F)F)nn1C)c1nc(-c2cccc(C(=O)N(C)C)c2)no1` (centres unmarked) [Compound 183, N-(1-(3-(3-(dimethylcarbamoyl)phenyl)-1,2,4-oxadiazol-5-yl)ethyl)-1-methyl-3-(trifluoromethyl)-1H-pyrazole-5-carboxamide], the pIC50 was at most 4.70.
Regarding `CC(NC(=O)c1cc(C(F)(F)F)nn1C)c1nc(-c2cccc(O)c2)no1` (centres unmarked) [Compound 186, N-(1-(3-(3-hydroxyphenyl)-1,2,4-oxadiazol-5-yl)ethyl)-1-methyl-3-(trifluoromethyl)-1H-pyrazole-5-carboxamide], the pIC50 was 4.70 to 6.00.

For the origin of these results see US20220259193A1, “KCNT1 INHIBITORS AND METHODS OF USE” (Praxis Precision Medicines, Inc., priority 2019, published 2022).
